Experimental data taken from patent publication US20110044938A1 (NYCOMED GMBH, priority 2006, published 2011).

How the values were obtained:
[1] = tested on: RKO (RKOp27) human colon adenocarcinoma cells; test: Alamar Blue cell viability assay, anti-proliferative/cytotoxic activity on proliferating RKO subclones; type: cell-based; settings: RKOp27, 72 h, RKO p27 uninduced (proliferating) cells, value = class bound given in Table A, read-out: −logIC50 RKO p27 uninduced (proliferating) (converted)
Summary of the method: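 RKOp27 subclones (5000 cells/well) were exposed 24 h after seeding to semi-log compound dilutions in DMEM with 10% FCS, in quadruplicate, for 72 h at 37 °C. Viability was read by Alamar Blue fluorescence (544/590 nm) relative to untreated cells (1% DMSO medium). IC50 came from concentration-effect curves and is reported as −log IC50 [mol/l].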

[2] = tested on: subclones of RKO colon adenocarcinoma cells (RKOp27 or RKOp21) arrested by Ponasterone A; test: Alamar Blue cell viability assay, cell cycle specific mode of action: cells arrested by ectopic p27Kip1 induced by Ponasterone A versus proliferating cells; type: cell-based; settings: Homo sapiens, RKO p27 induced (arrested) cells, 10 μM Ponasterone A, 72 hours, value = class bound given in Table A, read-out: −logIC50 RKO p27 induced (arrested) (converted)
Summary of the method: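 RKOp27 or RKOp21 cells, 15000/well in DMEM/10% FCS, either arrested by p27Kip1 induced with 10 μM Ponasterone A or proliferating without inducer; compound added after 24 h, 72 h at 37° C. Alamar Blue fluorescence (544/590 nm), viability as % of untreated cells; −log IC50 reported.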

Compound	IC50 [2] [nM]	IC50 [1] [nM]
CC(CC(=O)Nc1sc2c(c1C#N)CCC(OC(=O)NCc1ccnn1C)C2)c1ccccc1 (stereo not shown) [Example 293, (2-Methyl-2H-pyrazol-3-ylmethyl)-carbamic acid 3-cyano-2-(3-phenyl-butanoylamino)-4,5,6,7-tetrahydro-benzo[b] thiophen-6-yl ester]	≥ 50100	≤ 501
Cc1nn(C)cc1CNC(=O)OC1CCc2c(sc(NC(=O)CC(C)c3ccccc3)c2C#N)C1 (stereo not shown) [Example 301, (1,3-Dimethyl-1H-pyrazol-4-ylmethyl)-carbamic acid 3-cyano-2-(3-phenyl-butanoylamino)-4,5,6,7-tetrahydro-benzo[b]thiophen-6-yl ester]	≥ 50100	≤ 501
CCOc1ccccc1/C=C/C(=O)Nc1sc2c(c1C#N)CCC(COC(=O)NCc1ccccn1)C2 (stereo not shown) [Example 15, Pyridin-2-ylmethyl-carbamic acid 3-cyano-2-[(E)-3-(2-ethoxy-phenyl)-allanoylamino]-4,5,6,7-tetrahydro-benzo[b]thiophen-6-ylmethyl ester]	≥ 100000	501 to 2000
COc1cccc(C(C)CC(=O)Nc2sc3c(c2C#N)CCC(COC(=O)NCc2nccn2C)C3)c1 (stereo not shown) [Example 330, (1-Methyl-1H-imidazol-2-ylmethyl)-carbamic acid 3-cyano-2-[3-(3-methoxy-phenyl)-butanoylamino]-4,5,6,7-tetrahydro-benzo[b] thiophen-6-ylmethyl ester]	≥ 10000	501 to 2000
CCOc1ccccc1CCC(=O)Nc1sc2c(c1C#N)CCC(OC(=O)NCCc1cccnc1)C2 (stereo not shown) [Example 166, (2-Pyridin-3-yl-ethyl)-carbamic acid 3-cyano-2-[3-(2-ethoxy-phenyl)-propanoylamino]-4,5,6,7-tetrahydro-benzo[b]thiophen-6-yl ester]	≥ 100000	≤ 501
Cc1nn(C)cc1CNC(=O)OCC1CCc2c(sc(NC(=O)CC(C)c3ccccc3)c2C#N)C1 (stereo not shown) [Example 320, (1,3-Dimethyl-1H-pyrazol-4-ylmethyl)-carbamic acid 3-cyano-2-(3-phenyl-butanoylamino)-4,5,6,7-tetrahydro-benzo[b]thiophen-6-ylmethyl ester]	≥ 10000	≤ 501
COc1cccc(CCC(=O)Nc2sc3c(c2C#N)CCC(OC(=O)NCc2conc2C)C3)c1 (stereo not shown) [Example 228, (3-Methyl-isoxazol-4-ylmethyl)-carbamic acid 3-cyano-2-[3-(3-methoxy-phenyl)-propanoylamino]-4,5,6,7-tetrahydro-benzo[b]thiophen-6-yl ester]	≥ 100000	≤ 501
COc1cccc(CCC(=O)Nc2sc3c(c2C#N)CCC(OC(=O)Nc2cccnc2)C3)c1 (stereo not shown) [Example 264, Pyridin-3-yl-carbamic acid 3-cyano-2-[3-(3-methoxy-phenyl)-propanoylamino]-4,5,6,7-tetrahydro-benzo[b]thiophen-6-yl ester]	≥ 50100	501 to 2000
Cc1ccncc1/C=C/C(=O)Nc1sc2c(c1C#N)CCC(COC(=O)N1CCC[C@H]1CO)C2 (stereo partly drawn) [Example 135, 2-(S)-(Hydroxymethyl) pyrrolidine-1-carbamic acid 3-cyano-2-[(E)-3-(4-methyl-pyridin-3-yl)-allanoylamino]-4,5,6,7-tetrahydro-benzo[b]thiophen-6-ylmethyl ester]	≥ 100000	501 to 2000
Cc1cc(CNC(=O)OCC2CCc3c(sc(NC(=O)CC(C)c4ccccc4)c3C#N)C2)no1 (stereo not shown) [Example 314, (5-Methyl-isoxazol-3-ylmethyl)-carbamic acid 3-cyano-2-(3-phenyl-butanoylamino)-4,5,6,7-tetrahydro-benzo[b] thiophen-6-ylmethyl ester]	≥ 50100	≤ 501
CNC(=O)OCC1CCc2c(sc(NC(=O)CCc3cccc(OC)c3)c2C#N)C1 (stereo not shown) [Example 233, Methyl-carbamic acid 3-cyano-2-[3-(3-methoxy-phenyl)-propanoylamino]-4,5,6,7-tetrahydro-benzo[b]thiophen-6-ylmethyl ester]	≥ 100000	≤ 501
COc1cccc(C(C)CC(=O)Nc2sc3c(c2C#N)CCC(OC(=O)NCc2cncn2C)C3)c1 (stereo not shown) [Example 272, (3-Methyl-3H-imidazol-4-ylmethyl)-carbamic acid 3-cyano-2-[3-(3-methoxy-phenyl)-butanoylamino]-4,5,6,7-tetrahydro-benzo[b]thiophen-6-yl ester]	≥ 100000	501 to 2000
CCNC(=O)OC1CCc2c(sc(NC(=O)CCc3ccccc3OCC)c2C#N)C1 (stereo not shown) [Example 153, Ethyl-carbamic acid 3-cyano-2-[3-(2-ethoxy-phenyl)-propanoylamino]-4,5,6,7-tetrahydro-benzo[b]thiophen-6-yl ester]	≥ 10000	≤ 501
N#Cc1c(NC(=O)/C=C/c2cccnc2)sc2c1CCC(COC(=O)NCc1nccs1)C2 (stereo not shown) [Example 65, Thiazol-2-ylmethyl-carbamic acid 3-cyano-2-((E)-3-pyridin-3-yl-allanoylamino)-4,5,6,7-tetrahydro-benzo[b]thiophen-6-ylmethyl ester]	≥ 100000	501 to 2000

Second part, led by results:

IC50 [2] [nM]	Compound	IC50 [1] [nM]
≥ 100000	N#Cc1c(NC(=O)/C=C/c2cccnc2)sc2c1CCC(OC(=O)NCCn1ccnc1)C2 (stereo not shown) [Example 37, (2-Imidazol-1-yl-ethyl)-carbamic acid 3-cyano-2-((E)-3-pyridin-3-yl-allanoylamino)-4,5,6,7-tetrahydro-benzo[b]thiophen-6-yl ester]	501 to 2000
≥ 100000	Cc1cc(CNC(=O)OCC2CCc3c(sc(NC(=O)/C=C/c4cccnc4)c3C#N)C2)no1 (stereo not shown) [Example 47, (5-Methyl-isoxazol-3-ylmethyl)-carbamic acid 3-cyano-2-((E)-3-pyridin-3-yl-allanoylamino)-4,5,6,7-tetrahydro-benzo[b]thiophen-6-ylmethyl ester]	≤ 501
≥ 100000	N#Cc1c(NC(=O)/C=C/c2cccnc2)sc2c1CCC(OC(=O)N1CC(O)C1)C2 (stereo not shown) [Example 77, 3-Hydroxy-azetidine-1-carboxylic acid 3-cyano-2-((E)-3-pyridin-3-yl-allanoylamino)-4,5,6,7-tetrahydro-benzo[b]thiophen-6-yl ester]	≤ 501
≥ 100000	CC(C)CN(C)C(=O)OCC1CCc2c(sc(NC(=O)/C=C/c3cccnc3)c2C#N)C1 (stereo not shown) [Example 137, Isobutyl-methyl-carbamic acid 3-cyano-2-((E)-3-pyridin-3-yl-allanoylamino)-4,5,6,7-tetrahydro-benzo[b]thiophen-6-ylmethyl ester]	≤ 501
≥ 100000	COC(=O)OCC1CCc2c(sc(NC(=O)/C=C/c3cccnc3)c2C#N)C1 (stereo not shown) [Example 49, Carbonic acid 3-cyano-2-((E)-3-pyridin-3-yl-allanoylamino)-4,5,6,7-tetrahydro-benzo[b]thiophen-6-ylmethyl ester methyl ester]	501 to 2000
≥ 100000	COCC1CCCN1C(=O)OCC1CCc2c(sc(NC(=O)/C=C/c3cccnc3)c2C#N)C1 (stereo not shown) [Example 89, 2-(Methoxymethyl) pyrrolidine-1-carboxylic acid 3-cyano-2-((E)-3-pyridin-3-yl-allanoylamino)-4,5,6,7-tetrahydro-benzo[b]thiophen-6-ylmethyl ester]	≤ 501
≥ 100000	COc1cccc(CCC(=O)Nc2sc3c(c2C#N)CCC(OC(=O)NC2CCOCC2)C3)c1 (stereo not shown) [Example 251, (Tetrahydro-pyran-4-yl)-carbamicacid 3-cyano-2-[3-(3-methoxy-phenyl)-propanoylamino]-4,5,6,7-tetrahydro-benzo[b]thiophen-6-yl ester]	501 to 2000
≥ 100000	Cn1cccc1CNC(=O)OC1CCc2c(sc(NC(=O)/C=C/c3cccnc3)c2C#N)C1 (stereo not shown) [Example 56, (1-Methyl-1H-pyrrol-2-ylmethyl)-carbamic acid 3-cyano-2-((E)-3-pyridin-3-yl-allanoylamino)-4,5,6,7-tetrahydro-benzo[b]thiophen-6-yl ester]	≤ 501
≥ 100000	CCn1nccc1CNC(=O)OC1CCc2c(sc(NC(=O)/C=C/c3cccnc3)c2C#N)C1 (stereo not shown) [Example 69, (2-Ethyl-2H-pyrazol-3-ylmethyl)-carbamic acid 3-cyano-2-((E)-3-pyridin-3-yl-allanoylamino)-4,5,6,7-tetrahydro-benzo[b]thiophen-6-yl ester]	≤ 501
≥ 100000	Cc1nnc(CNC(=O)OCC2CCc3c(sc(NC(=O)/C=C/c4cccnc4)c3C#N)C2)o1 (stereo not shown) [Example 72, (5-Methyl-[1,3,4]oxadiazol-2-ylmethyl)-carbamic acid 3-cyano-2-((E)-3-pyridin-3-yl-allanoylamino)-4,5,6,7-tetrahydro-benzo[b]thiophen-6-ylmethyl ester]	≤ 501
≥ 100000	N#Cc1c(NC(=O)/C=C/c2cccnc2)sc2c1CCC(OC(=O)NCc1ncc[nH]1)C2 (stereo not shown) [Example 39, (1H-Imidazol-2-ylmethyl)-carbamic acid 3-cyano-2-((E)-3-pyridin-3-yl-allanoylamino)-4,5,6,7-tetrahydro-benzo[b]thiophen-6-yl ester]	501 to 2000
≥ 100000	N#Cc1c(NC(=O)/C=C/c2cccnc2)sc2c1CCC(OC(=O)NC1CCOCC1)C2 (stereo not shown) [Example 26, (Tetrahydro-pyran-4-yl)-carbamic acid 3-cyano-2-((E)-3-pyridin-3-yl-allanoylamino)-4,5,6,7-tetrahydro-benzo[b]thiophen-6-yl ester]	501 to 2000
